{"source": "patent US7087627B1", "about": "“Combinations for the treatment of diseases involving angiogenesis” (Angiogene Pharmaceuticals Ltd., priority 1999, dated 2006)", "key": {"[1]": {"test_system": "SaS tumours", "assay": "Induction of necrosis in SaS tumours", "assay_type": "in vivo", "conditions": "SaS tumour-bearing mice, tumours excised after 24 h, mean score 1-10 by area of necrosis", "description": "Mice bearing either CaNT or SaS tumours were treated with the test compound and tumours excised after 24 h, fixed in formalin, embedded in paraffin, sectioned and stained with haematoxylin and eosin. Sections were scored based on area of necrosis as follows:\nIn this assay the effect of a given dose of either a vascular damaging agent or a nitric oxide synthase inhibitor administered alone can be compared with the effect of a combination of the two agents."}, "[2]": {"test_system": "CaNT tumours", "assay": "Tumour functional vascular volume measured by fluorescent dye Hoechst 33342", "assay_type": "in vivo", "conditions": "CaNT tumour-bearing mice; CA4P 25 mg/kg alone, intra peritoneal; 24 hours after treatment", "description": "Activity Against Tumour Vasculature Measured by Fluorescent Dye.\nTumour functional vascular volume in CaNT tumour-bearing mice was measured using the fluorescent dye Hoechst 33342 according to the method of Smith et al (Brit J Cancer 57, 247–253, 1988). The fluorescent dye was dissolved in saline at 6.25 mg/ml and injected intravenously at 10 mg/kg 24 hours after intra peritoneal drug treatment. One minute later, animals were killed and tumours excised and frozen; 10 μm sections were cut at 3 different levels and observed under UV illumination using an Olympus microscope equipped with epifluorescence. Blood vessels were identified by their fluorescent outlines and vascular volume was quantified using a point scoring system based on that described by Chalkley, (J Natl Cancer Inst, 4, 47–53, 1943). All estimates were based on counting a minimum of 100 fields from sections cut at the 3 different levels."}}, "data": [{"smiles": "COc1ccc(/C=C\\c2cc(OC)c(OC)c(OC)c2)cc1OP(=O)(O)O", "note": "[CA4P, Combretastatin A4 phosphate]", "values": [{"measurement": "Necrosis score ± SEM (n)", "setting": "[1]; CA4P 500 mg/kg alone", "result": "1.7 ± 0.7"}, {"measurement": "Vascular Volume % ± SEM (n)", "setting": "[2]", "result": "1.03 ± 0.14 (4) %"}]}, {"smiles": "Cc1ccnc(N)c1", "note": "[AMP, 2-amino-4-methylpyridine]", "values": [{"measurement": "Necrosis score ± SEM (n)", "setting": "[1]; AMP 10 mg/kg alone", "result": 1.0}]}]}
